{
  "source": "PubChem BioAssay AID1259409",
  "about": "(Chemical Carcinogenesis Research Information System (CCRIS), 2018)",
  "origin": "cited, not measured here",
  "system": "rodent chemically induced tumor inhibition, incidence and multiplicity",
  "test": "CCRIS tumor inhibitor studies",
  "conditions": "Species: MOUSE",
  "data": [
    {"smiles": "S=C=NCC(c1ccccc1)c1ccccc1", "values": [
      {"measurement": "tumour outcome (control, treated, inhibition, significance)", "setting": "Carcinogen: 4-(METHYLNITROSAMINO)-1-(3-PYRIDYL)-1-BUTANONE, 64091-91-4, Dose [Inhibitor]: 0, 1 UMOL ONCE 2 HR PRIOR TO CARCINOGEN DOSE (STUDY DURATION: 16 WK), Route [Inhibitor]: GAVAGE, Strain/Sex: STRAIN-A/FEMALE, Target Tissue: Type of Lesion: LUNG: ADENOMA, Dose [Carcinogen]: 10 UMOL IN 0.1 ML SALINE ONCE, Promoter: NONE USED", "value": "100%, 60%, 40%, p<0.05"},
      {"measurement": "tumour outcome (control, treated, inhibition, significance)", "setting": "Carcinogen: 4-(METHYLNITROSAMINO)-1-(3-PYRIDYL)-1-BUTANONE, 64091-91-4, Dose [Inhibitor]: 0, 5 UMOL ONCE 2 HR PRIOR TO CARCINOGEN DOSE (STUDY DURATION: 16 WK), Route [Inhibitor]: GAVAGE, Strain/Sex: STRAIN-A/FEMALE, Target Tissue: Type of Lesion: LUNG: ADENOMA, Dose [Carcinogen]: 10 UMOL IN 0.1 ML SALINE ONCE, Promoter: NONE USED", "value": "100%, 45%, 55%, p<0.05"}
    ]},
    {"smiles": "CC(C)(C)c1cccc(C(C)(C)C)c1O", "values": [
      {"measurement": "tumour outcome (control, treated, inhibition, significance)", "setting": "Carcinogen: BENZO[A]PYRENE, 50-32-8, Dose [Inhibitor]: 0.03 MMOL/G OF DIET DAILY STARTING 7 D BEFORE AND CONTINUING THROUGH 3 D AFTER CARCINOGEN TREATMENT FOLLOWED BY OBSERVAT, Route [Inhibitor]: ORAL, Strain/Sex: ICR/FEMALE, Target Tissue: Type of Lesion: FORESTOMACH: NEOPLASM, Dose [Carcinogen]: 1 MG IN 0.2 ML CORN OIL 2/WK FOR 4 WK, Promoter: NONE USED", "value": "94%, 79%, 16%, not significant"}
    ]},
    {"smiles": "CCCCCCCCCCCCCCCC(=O)OC[C@H](O)[C@H]1OC(=O)C(O)=C1O", "values": [
      {"measurement": "tumour outcome (control, treated, inhibition, significance)", "setting": "Carcinogen: 7,12-DIMETHYLBENZ[A]ANTHRACENE, 57-97-6, Dose [Inhibitor]: 0, 1 UMOL 1/WK 5 MIN PRIOR TO EACH PROMOTER DOSE BEGINNING 2 WK POST CARCINOGEN DOSE AND CONTINUING FOR 27 WK (STUDY DUR, Route [Inhibitor]: DERMAL, Strain/Sex: SENCAR/FEMALE, Target Tissue: Type of Lesion: SKIN: PAPILLOMA, Dose [Carcinogen]: 25 NMOL ONCE, Promoter: CHRYSAROBIN, 491-58-7", "value": "100%, 88%, 12%, not significant"},
      {"measurement": "tumour outcome (control, treated, inhibition, significance)", "setting": "Carcinogen: 7,12-DIMETHYLBENZ[A]ANTHRACENE, 57-97-6, Dose [Inhibitor]: 0, 4 UMOL 1/WK 5 MIN PRIOR TO EACH PROMOTER DOSE BEGINNING 2 WK POST CARCINOGEN DOSE AND CONTINUING FOR 27 WK (STUDY DUR, Route [Inhibitor]: DERMAL, Strain/Sex: SENCAR/FEMALE, Target Tissue: Type of Lesion: SKIN: PAPILLOMA, Dose [Carcinogen]: 25 NMOL ONCE, Promoter: CHRYSAROBIN, 491-58-7", "value": "100%, 90%, 10%, not significant"}
    ]}
  ]
}
